Data on one substance can be found in patent publication US11473088B2, “Method of treating cancer and method of sensitizing cancer cells to the action of chemotherapeutic agents via growth hormone receptor antagonists or knock down” (Ohio University, priority 2016, dated 2022).

Assay [1] deals with SK-MEL-5 cells. Description: Cell proliferation (resazurin) assay. The format is cell-based, human. The conditions noted are these: 48 hr. A general note: Alamar Blue is a resazurin reagent that responds to reducing activity.
Assay [2] relates to MALME-3M cells. Description: RT-qPCR of RNA levels after hGH addition or GHR-KD. The format is cell-based, human. The conditions noted are these: 0, 5, 50 and 150 ng/mL hGH, 24 hr. On the procedure:
(§1) For hGH treatment, 16 hours after seeding (or 24 hours post-transfection), the cells were serum-starved for 2 hours in serum-free growth media, and hGH (phosphate buffered saline was used as control where applicable) was added at the noted concentrations (0-, 5-, 50-, and 150 ng/ml). Cells were subsequently incubated for 24 hours before evaluating RNA levels. Recombinant hGH was purchased from Antibodies Online (#ABIN2017921, Atlanta, Ga.).
(§2) Transfection was performed using siLentFect lipid reagent (Biorad #170-3360, Hercules, Calif.) following the manufacturer's protocol. […] Mock transfections were performed using universal scrambled negative control siRNA-duplex (Origene #SR30004). TYE-563-fluorescent labeled siRNA duplex (Origene #SR30002) was used as the transfection control. Cells were trypsinized, counted using a Countess Automated Cell Counter (Life Technologies, Carlsbad, Calif.), and seeded at 25,000-30,000 cells/cm^2, the cells being allowed to attach for 16-18 hours. The growth media was replaced with fresh antibiotic free complete growth medium just prior to transfection. […] Media was changed to complete growth medium plus antibiotics after 24 hours. RNA levels were analyzed 48 hours post-transfection, and protein levels were analyzed at 60 hours post-transfection.
(§3) RNA extraction was performed using the IBI-Trizol based total RNA purification kit (MidSci #IB47632, St. Louis, Mo.), and reverse transcription was performed using Maxima First Strand cDNA synthesis kit (Thermo Fisher Scientific #K1642, Waltham, Mass.) following the manufacturers' protocols. Real time-quantitative PCR and melt curve analysis were performed using Maxima SYBR-Green qPCR master mix (Thermo Fisher Scientific #K0241) and a T100 thermal cycler (Biorad #1861096, Hercules, Calif.). RNA and DNA concentrations were estimated using a Nanodrop2000 (Thermo Fisher Scientific, Waltham, Mass.) spectrophotometer. Primers were obtained from Sigma-Aldrich for the following human genes, with primer efficiency being experimentally confirmed: GAPDH, b-Actin, GHR, GHRHR, SOCS2, IGF1, IGF1R, IGF2, IGF2R, PRL, PRLR, insulin (Ins), IR, IGFBP2, IGFBP3, EGFR, HGF, cMET and ERBB3. Each sample represented a pool of two replicates per experiment. Experiments were performed at least three times. Each qPCR for individual genes and every treatment for every cell type was performed in triplicates.
(§4) And so—referring now to FIGS. 12A-12B, 17A-17C, 18A-18F, 19A-19F, and 20A-20F—RT-qPCR analysis of GH-IGF axis in human melanoma cells (FIGS. 12A-12B) and RT-qPCR analysis of GH-GHR and PRL-PRLR pairs in human melanoma cells (FIGS. 17A-17C) was performed. […] And, while not shown in FIGS. 12A and 12B, similar results for MALME-3M, MDA-MB-435 and SK-MEL-5 human melanoma cells are presented in FIGS. 13A-13L, 17A-17C, 18A-18F, 19A-19F, and 20A-20F. […] In all cases, exogenous hGH treatment was for 24 hr. RNA levels were normalized against expression of beta-actin and GAPDH as reference genes. […] Cells were grown in presence of 50 ng/mL exogenous GH and protein level changes were estimated 60 hr. post-transfection. [*, p<0.05, Students t test, n=3]. […] The percentage free area at the end time point was calculated using ImageJ software and reflected the decrease/inhibition in migration. […] [*, p<0.05, Students t-test, n=3]. In all cases, exogenous hGH treatment was for 24 hr. RNA levels were normalized against expression of β-actin and GAPDH as reference genes [*, p<0.05, Wilcoxon sign rank test, n=4]. […] In all cases, exogenous hGH treatment was for 24 hr. RNA levels were normalized against expression of β-actin and GAPDH as reference genes. [*, p<0.05, Wilcoxon sign rank test, n=4]
Background: In qPCR the cycle at which signal appears reflects the starting amount.

Assay [3] concerns MDA-MB-435 cells. Kind of assay: RT-qPCR of RNA levels after hGH addition or GHR-KD. The format is cell-based, human. The procedure:
as §1, §2, §3, §4

In assay [4] the test system is SK-MEL-28 cells. Kind of assay: RT-qPCR of RNA levels after hGH addition or GHR-KD. The format is cell-based, human. The procedure:
as §1, §2, §3, §4

Assay [5] concerns human melanoma cells. Kind of assay: RT-qPCR of RNA levels after hGH addition or GHR-KD. The format is cell-based. The procedure:
as §1, §2, §3
And so—referring now to FIGS. 12A-12B, 17A-17C, 18A-18F, 19A-19F, and 20A-20F—RT-qPCR analysis of GH-IGF axis in human melanoma cells (FIGS. 12A-12B) and RT-qPCR analysis of GH-GHR and PRL-PRLR pairs in human melanoma cells (FIGS. 17A-17C) was performed. […] The percentage free area at the end time point was calculated using ImageJ software and reflected the decrease/inhibition in migration. […]

Assay [6] relates to Hep-G2 and SK-HEP-1 cells. Kind of assay: Time-lapse WB of GH-regulated signaling pathways. The format is cell-based, human. The note with it: 50 ng/mL GH; within 20 minutes. The procedure:
Following treatments, cells were lysed by mild sonication in Ripa lysis buffer as described previously. SDS-PAGE and western-blot was performed using general lab-techniques as described previously.

[7] abbreviates: 0, 5, 50 and 150 ng/mL hGH, 24 hr.
[8] abbreviates: SK-MEL-28 and MALME-3M, maximum GH concentrations.

Consider “hGH: Recombinant human growth hormone, Antibodies Online #ABIN2017921”, for which the “Cell proliferation induced by hGH-excess (increase)” value in assay [1] (50 ng/ml hGH) came out at 10%. Moreover, in assay [1] (150 ng/mL hGH), the increase in proliferation is on record as 22%. Besides, in assay [2], the “RNA levels of TYRP1 with GH” value was “dose-dependent increase”. Besides, the “E-cadherin RNA levels with increasing GH” value in assay [3] was “decreased significantly”. In addition, in assay [4], the “IGFBP2 RNA levels at high GH levels” value was “increase”, the “N-cadherin RNA levels with increase of GH” value was “significant dose-dependent increase” and the “vimentin RNA levels with increase of GH” value is “significant dose-dependent increase”. Moreover, in assay [4] (setting [7]), the “RNA levels of MITF with GH” value is on record as “dose dependent increase” and the “RNA levels of TYRP1 with GH” value is given as “dose-dependent increase”. Also, the “level of decrease of some ABC-transporters in presence of GH” value in assay [5] (50 ng/mL GH, with anti-cancer drugs) is listed as around 2 fold. Further, in assay [5] (GH stimulation or GHR-KD), the “ERBB3 RNA levels” value is on record as “upregulation”. In assay [5] (setting [8]), the “HGF expression level upregulated with added GH” value is given as “more than 2 fold” and the “MET expression level upregulated with added GH” value is “more than 2 fold”. For the same substance, in assay [6], the “phosphorylation states of STAT3, STAT5, SRC, and ERK1/2 (p44/42 MAPK)” value was “increased significantly”.
